We go through two molecules from patent US20110124574A1, “RESTORATION OF ESTROGEN RECEPTOR-(ALPHA) ACTIVITY” (priority 2008, published 2011).

Where no end group is shown, it is not given here. The star is where a group is joined. For = O=C*

In experiment [1] the test system is ERα. In words: ERα mRNA by RT-PCR in stimulated MDA-MB-231 cells. Type of experiment: cell-based, human. As to conditions: time points 6, 12, 18 and 24 hours. The method, then:
Breast cancer cells were grown in 6 well plates and stimulated with recombinant Wnt-5a protein (rW5a) or the Wnt-5a derived Foxy-5 peptide (F5), for 6, 12, 18 or 24 h. RNA was extracted at the end time point, cDNA synthesized and subjected to RT-PCR for ERα and the housekeeping gene, β-actin. A: MDA-MB-231 breast cancer cells, B: MDA-MB-468 breast cancer cells. The positive control (Pos) is RNA extracted from T47D cells which express ERα. The negative control represents a water control.
Stimulation of cells was performed with recombinant Wnt-5a (0.6 μg/ml) and recombinant Wnt-3a (0.1 μg/ml and in a control experiment, 0.6 μg/ml) (R&D Systems Abington, UK) for times as indicated. The Wnt-5a derived formylated hexapeptide, Foxy-5 (formyl-MDGCEL) (SEQ. ID. NO. 1) designed in the laboratory of the inventors, and a formylated random hexapeptide (formyl-MSADVG) (SEQ: ID: NO: 16) were either synthesized by Pepscan Presto (Lelystad, The Netherlands) or Inbiolabs (Tallinn, Estonia). The peptides were purified by RP-HPLC and mass spectrometry, and the >95% pure peptides were synthesized three times. […]
RNA extraction was performed in a designated clean RNA area with the addition of 500 μl TRIzol to each sample. […] The RNA concentration was measured using a Nanodrop Spectrophotometer ND-1000 (Bio-Rad (Hercules Calif.)). […]

For another experiment, the system named is murine ERα. In words: In vivo ERα RT-PCR in 4T1 primary breast tumors of Balb/C mice. On the set-up: species or system mouse. The conditions noted are these: Balb/C mice with 4T1 cells in mammary fat pads, 20 μg every fourth day for 25 days. The method, then:
2.5×10^4 4T1 breast cancer cells were inoculated into the mammary fat pads of 8-week old Balb/C mice. The animals were subsequently treated with either PBS alone, the Rdm control peptide (20 μg) or Foxy-5 (20 μg), every 4th day, for 25 days. RNA was extracted from primary breast tumors from 4 animals in each group, and subjected to RT-PCR for murine ERα. Shown are primary tumor samples from two animals of each treatment group.
2.5×10^4 4T1 breast cancer cells were inoculated into the mammary fat pads of 8 week old Balb/C mice, that were subsequently treated with either PBS alone, the Rdm control peptide (20 μg), or Foxy-5 (20 μg) every 4th day, for 25 days as described in a previous publication from the inventors (9). RNA was extracted from flash frozen primary breast tumors from 4 animals in each group, and subjected to RT-PCR for murine ERα.

Experiment [2] concerns ERα. In words: ERα protein expression by Western blot in stimulated MDA-MB-231 cells. The experiment is classed as cell-based, human. The conditions noted are these: stimulation 24 and 48 hours, rWnt-5a 0.6 μg/ml, rWnt-3a 0.1 μg/ml, peptides 100 μM. The protocol: Breast cancer cells were grown in 6 well plates, and stimulated with recombinant Wnt-5a protein (rW5a), the Wnt-5a derived Foxy-5 peptide (F5), recombinant Wnt-3a protein (rW3a), or a formylated random hexapeptide (Rdm) for 24 or 48 h. Following treatment cells were lysed and subjected to SDS-PAGE, transferred to nitrocellulose membranes and blotted for ERα expression. A: MDA-MB-231 cells stimulated with recombinant Wnt-5a, Foxy-5, Wnt-3a, Rdm. B: MDA-MB-468 cells stimulated with recombinant Wnt-5a or Foxy-5. C: 4T1 cells stimulated with recombinant Wnt-5a or Foxy-5. Positive controls (Pos) were included in order to confirm the correct band size for ERα. Two different positive controls were used: T47D cell lysates known to express ERα and MDA-MB-231 cells transiently transfected with a full length ERα plasmid, resulting in extremely high ERα expression (top row, right panel, third row, right panel).
Stimulation of cells was performed with recombinant Wnt-5a (0.6 μg/ml) and recombinant Wnt-3a (0.1 μg/ml and in a control experiment, 0.6 μg/ml) (R&D Systems Abington, UK) for times as indicated. The Wnt-5a derived formylated hexapeptide, Foxy-5 (formyl-MDGCEL) (SEQ. ID. NO. 1) designed in the laboratory of the inventors, and a formylated random hexapeptide (formyl-MSADVG) (SEQ: ID: NO: 16) were either synthesized by Pepscan Presto (Lelystad, The Netherlands) or Inbiolabs (Tallinn, Estonia). The peptides were purified by RP-HPLC and mass spectrometry, and the >95% pure peptides were synthesized three times. Cells were treated with Foxy-5 or random peptide at a concentration of 100 μM for times as indicated. All other chemicals if not otherwise stated were purchased from Sigma Chemicals (St. Louis, Mo.).
Cells were lysed in Triton lysis buffer (50 mM Tris (pH7.5), 1% Triton x-100, 140 mM NaCl, 0.5 mM EDTA, 0.5 MgCl2, 10 mM NaF) with the addition of fresh leupeptin (1 μg/ml), Pefabloc (2 mM), aprotinin (20 μg/ml) and Na3VO4 (4 mM). […] Scanning and densitometry was performed using a Bio-Rad (Hercules Calif.) GS-800 densitometer with Quantity One software. […]

Consider “formyl-MDGCEL (For-MDGCEL; listed as Homo sapiens) [Foxy-5]”, for which the “stimulation time after which ERα mRNA was detected” value in the experiment on ERα [1] was 6 h. The “ERα expression in primary tumors” value with murine ERα is recorded as “strong ERα expression”.

B1: recombinant Wnt-5a: recombinant Wnt-5a protein (R&D Systems) (protein, UniProt P41221 62-380, looked up)
Protein Wnt-5a: IIGAQPLCSQLAGLSQGQKKLCHLYQDHMQYIGEGAKTGIKECQYQFRHRRWNCSTVDNTSVFGRVMQIGSRETAFTYAVSAAGVVNAMSRACREGELSTCGCSRAARPKDLPRDWLWGGCGDNIDYGYRFAKEFVDARERERIHAKGSYESARILMNLHNNEAGRRTVYNLADVACKCHGVSGSCSLKTCWLQLADFRKVGDALKEKYDSAAAMRLNSRGKLVQVNSRFNSPTTQDLVYIDPSPDYCVRNESTGSLGTQGRLCNKTSEGMDGCELMCCGRGYDQFKTVQTERCHCKFHWCCYVKCKKCTEIVDQFVCK
On to B1, for which, in the experiment on ERα [1], the “stimulation time after which ERα mRNA was detected” value was 12 h. Besides, in the experiment on ERα [2], the “levels of ERα protein” value is “increase”.
